Data published in publication PMC5161622 (ACS synthetic biology, 2016).
Entries after “also recorded” stand apart in the source; their conditions may differ.

Assays:
β-gly W33G [1] = biological target: T1, β-gly W33G (Saccharolobus solfataricus, UniProt P22498, W33G); experiment: β-glycosidase enzyme assay, rescue of β-gly W33G by effector ligands; assay type: biochemical, Sulfolobus solfataricus; conditions: for rescue of enzyme activity (in words) / enhancement of initial velocity relative to apo enzyme: 2 mM effector; for rescue of enzyme activity (in words) / agonist class / concentration dependence of initial velocity / effector dissociation constant KD (in words) / linkage term W (in words): 750 μM FDGal; for agonist class: concentration dependence; for concentration dependence of initial velocity / effector dissociation constant KD (in words) / linkage term W (in words): up to 5 mM effector; for effector dissociation constant KD (in words) / linkage term W (in words): fit of concentration dependence
T1 sequence (P22498 whole entry W33G): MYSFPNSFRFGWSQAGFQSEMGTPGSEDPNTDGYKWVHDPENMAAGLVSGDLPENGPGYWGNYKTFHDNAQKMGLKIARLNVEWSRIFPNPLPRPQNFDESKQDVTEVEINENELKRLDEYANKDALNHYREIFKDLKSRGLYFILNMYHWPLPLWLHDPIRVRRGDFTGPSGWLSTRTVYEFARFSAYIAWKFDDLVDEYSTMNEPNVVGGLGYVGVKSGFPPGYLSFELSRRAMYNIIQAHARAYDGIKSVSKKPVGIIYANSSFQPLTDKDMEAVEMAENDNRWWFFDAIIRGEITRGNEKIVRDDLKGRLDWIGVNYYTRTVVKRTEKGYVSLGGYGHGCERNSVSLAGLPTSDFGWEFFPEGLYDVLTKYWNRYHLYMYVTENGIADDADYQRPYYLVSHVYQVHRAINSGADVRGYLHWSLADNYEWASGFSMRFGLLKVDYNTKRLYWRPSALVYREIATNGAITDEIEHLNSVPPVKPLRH

β-gly W33G [2] = biological target: T1, β-gly W33G; experiment: 19F NMR competition assay with 6-fluoroindole reporter, β-gly W33G; assay type: binding, Sulfolobus solfataricus; conditions: 2 mM 6-fluoroindole, 500 μM protein; for displacement of 6-fluoroindole reporter (19F peak sharpening): 5 mM competitor
β-gly W33A = β-gly W33A (Saccharolobus solfataricus, UniProt P22498, W33A); experiment: β-glycosidase enzyme assay, rescue of β-gly W33A; assay type: biochemical, Sulfolobus solfataricus; conditions: 750 μM FDGal
Sequence of β-gly W33A (P22498 whole entry W33A): as the sequence (P22498 whole entry W33G) above, with G33A counted along it

β-gly W33G_V37A = β-gly W33G_V37A (Saccharolobus solfataricus, UniProt P22498, V37A/W33G); experiment: β-glycosidase enzyme assay, rescue of β-gly W33G_V37A; assay type: biochemical, Sulfolobus solfataricus
Sequence of β-gly W33G_V37A (P22498 whole entry W33G/V37A): as the sequence (P22498 whole entry W33G) above, with V37A counted along it

WT β-gly = biological target: T2, WT β-gly (Saccharolobus solfataricus, UniProt P22498); experiment: 19F NMR reporter binding, wild type β-gly; design: species or system Sulfolobus solfataricus; conditions: 2 mM 6-fluoroindole, 500 μM WT protein
T2 sequence (P22498 1-489): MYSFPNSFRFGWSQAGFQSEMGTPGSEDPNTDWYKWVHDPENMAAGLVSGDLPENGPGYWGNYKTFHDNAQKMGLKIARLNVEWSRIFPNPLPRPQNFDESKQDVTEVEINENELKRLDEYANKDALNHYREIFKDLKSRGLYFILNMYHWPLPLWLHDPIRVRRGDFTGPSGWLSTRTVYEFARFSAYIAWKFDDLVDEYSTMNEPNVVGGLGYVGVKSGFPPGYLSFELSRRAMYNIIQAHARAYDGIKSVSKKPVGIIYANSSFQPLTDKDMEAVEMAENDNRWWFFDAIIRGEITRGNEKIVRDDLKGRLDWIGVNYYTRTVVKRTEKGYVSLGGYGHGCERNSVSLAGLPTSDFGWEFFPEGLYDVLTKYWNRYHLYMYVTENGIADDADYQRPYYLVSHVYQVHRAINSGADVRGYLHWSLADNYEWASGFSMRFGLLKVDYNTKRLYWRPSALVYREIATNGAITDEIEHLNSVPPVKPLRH

β-gly W33G [3] = biological target: T1, β-gly W33G; conditions: 10 mM indole, cited from earlier work
[4] = fit of concentration dependence

Structure (SMILES)	rescue of enzyme activity (in words) (β-gly W33G [1])	displacement of 6-fluoroindole reporter (19F peak sharpening) (β-gly W33G [2])	agonist class (β-gly W33G [1])	concentration dependence of initial velocity (β-gly W33G [1])	linkage term W (in words) (β-gly W33G [1])	linkage term W (in words) (β-gly W33A; [4])	further results
Cc1cc2ccccc2[nH]1 [2-methylindole]	no increase in activity over the apo enzyme	very little, if any, peak sharpening; also recorded: does not bind to this site	–	–	–	–	–
Cc1c[nH]c2ccccc12 [3-methylindole]	most rescue; also recorded: the next best rescuing compound	analogous peak sharpening	partial agonists	dose-dependent increases in the initial velocity	worse than for indole	lower for W33A than for W33G	enhancement of initial velocity relative to apo enzyme (β-gly W33G [1]; FDGlc substrate 250 μM, indole versus 3-methylindole): difference in rescue between these substrates is greatly reduced; effector dissociation constant KD (in words) (β-gly W33G [1]): slightly better than for indole; also recorded: superior KD; rescue of enzyme activity (in words) (β-gly W33A): rescued activity better than indole
Fc1ccc2[nH]ccc2c1 [5-fluoroindole]	–	–	–	enhanced β-glycosidase activity at each of the concentrations we tested	W favors indole	–	effector dissociation constant KD (in words) (β-gly W33G [1]): KD favors 5-fluoroindole
Cc1ccc2[nH]ccc2c1 [5-methylindole]	–	–	–	–	–	–	rescue of enzyme activity (in words) (β-gly W33G_V37A; 2 mM effector, 750 μM FDGal): superior over indole; ligand efficiency (binding free energy per non-hydrogen atom) (β-gly W33G_V37A; 5-methylindole / β-gly W33G_V37A switch): −0.43 kcal/mol·atom; binding affinity KD (in words) (β-gly W33G_V37A; fit of concentration dependence, 750 μM FDGal): almost an order of magnitude tighter than that of indole
Fc1ccc2cc[nH]c2c1 [6-fluoroindole]	very similar level as indole itself	–	–	–	–	–	19F signal of reporter upon addition of protein (WT β-gly): no change to this peak; 19F signal of reporter upon addition of protein (β-gly W33G [2]; covalent substrate analog attached): considerable peak broadening
CNc1ccccc1 [N-methylaniline]	intermediate rescue	analogous peak sharpening	partial agonists	dose-dependent increases in the initial velocity	superior W value	highest value of W	rescue of enzyme activity (in words) (β-gly W33A): better than either indole or 3-methylindole; binding affinity KD (in words) (β-gly W33A; [4]): poor binding affinity
c1ccc2[nH]ccc2c1 [indole]	about twice the activity of 5-methylindole	signal sharpens	full agonist	dose-dependent increases in the initial velocity	highest linkage term (W)	lower for W33A than for W33G	enhancement of initial velocity relative to apo enzyme (β-gly W33G [1]; FDGal substrate 250 μM): better rescue with 2 mM indole than with 2 mM 3-methylindole; ligand efficiency (binding free energy per non-hydrogen atom) (β-gly W33G [1]; binding to β-gly W33G): −0.31 kcal/mol·atom; restoration of kcat/Km relative to wild type (β-gly W33G [3]; W33G alone 730-fold decrease): completely restored; restoration of wild type activity (β-gly W33G [3]): fully restored wild type activity
